Laboratory results as given in patent US6334995B1, “Process for the preparation of technetium-99m diethylene triamine penta-acetic acid diester” (Council of Scientific & Industrial Research, priority 1998, dated 2002).
Like-named read-outs stand apart in the source and are kept apart here.

Assays:
[1] = background statement; cited from earlier work
[2] = format: in vivo; settings: dog (10-12 kg)
Protocol: (§1) Renal plasma clearance of technetium-99m diethylene triamine pentaacetic acid dimethyl ester was studied in rats by single injection method. Two plasma samples were collected at 20 and 30 min time point. The clearance was calculated using a single compartment model. Iodine-131 orthoiodo-hippurate was coinjected as standard. This experiment was also performed with technetium-99m mercaptoacetylglycylglycylglycine. […] The corresponding values in dog (10-12 kg) for technetiumn-99m diethylene triamine pentaacetic acid dimethyl ester and technetium-99m mercaptoacetylglycylglycylglycine along with coinjected hippurate were 72, 80 and 157 ml/min. These values are much higher than technetium-99m diethylene triamine pentaacetic acid in rats (0.82 ml/min 100 g) or dogs (43 ml/min).

[3] = background statement; cited from earlier work; remark: listed apart in the source
[4] = Comparative biodistribution in mice; format: in vivo
Protocol: (§2) Biological evaluation of technetium-99m diethylenie triamine pentaacetic acid diester by comparative biodistribution with iodine-131 orthoiodo-hippurate and technetium-99m mercaptoacetylglycylglycylglyciine.
(§3) The comparative biodistribution experiment was undertaken in mice and rats. In mice either technetium-99m diethylene triamine pentaacetic acid diester or technetium-99m mercaptoacetylglycylglycylglycine were injected via the tail vein along with iodine-131 orthoiodo-hippurate. Rats were anaesthetised with urethane and the above radiochemicals were injected via the femoral vein. After predetermined time interval the animals were sacrificed and the organs were taken in the counting vial. Considerable care were exercised not to loose any urine during the process.

[5] = cited from earlier work; for Renal extraction: background comparison of MAG3 with iodine-131 orthoiodo-hippurate; for extraction efficiency: background statement
[6] = Comparative biodistribution in rats; format: in vivo; settings: for hepatobiliary accumulation: conclusion from biodistribution in rats or mice or scintigraphic experiments on dog; for Blood, percent dose per organ / Intestine, percent dose per organ / Kidney, percent dose per organ / Liver, percent dose per organ / Urine, percent dose per organ: rat
Protocol: as §2, §3

[7] = Renal plasma clearance in rats, single injection method; format: in vivo; settings: plasma samples at 20 and 30 min, single compartment model
Protocol: as §1

Row | Molecule | Renal plasma clearance [2] | Blood, percent dose per organ ([4]; 10 min post-injection) | Intestine, percent dose per organ ([4]; 10 min post-injection) | Kidney, percent dose per organ ([4]; 10 min post-injection) | Liver, percent dose per organ ([4]; 10 min post-injection) | Urine, percent dose per organ ([4]; 10 min post-injection) | Blood, percent dose per organ ([4]; 30 min post-injection) | Intestine, percent dose per organ ([4]; 30 min post-injection) | Kidney, percent dose per organ ([4]; 30 min post-injection) | Liver, percent dose per organ ([4]; 30 min post-injection) | Urine, percent dose per organ ([4]; 30 min post-injection) | Blood, percent dose per organ ([6]; 10 min post-injection) | Intestine, percent dose per organ ([6]; 10 min post-injection) | Kidney, percent dose per organ ([6]; 10 min post-injection) | Liver, percent dose per organ ([6]; 10 min post-injection) | Urine, percent dose per organ ([6]; 10 min post-injection) | Blood, percent dose per organ ([6]; 30 min post-injection) | Intestine, percent dose per organ ([6]; 30 min post-injection) | Kidney, percent dose per organ ([6]; 30 min post-injection) | Liver, percent dose per organ ([6]; 30 min post-injection) | also measured
1 | technetium-99m mercaptoacetylglycylglycylglycine [compound 3] | 80 mL/min | 6.60 ± 2.37 percent dose per organ | 3.31 ± 0.40 percent dose per organ | 4.32 ± 0.15 percent dose per organ | 7.07 ± 0.82 percent dose per organ | 48.34 ± 2.36 percent dose per organ | 1.23 ± 0.26 percent dose per organ | 5.82 ± 0.60 percent dose per organ | 1.12 ± 0.25 percent dose per organ | 4.36 ± 0.43 percent dose per organ | 70.99 percent dose per organ | 4.22 ± 0.40 percent dose per organ | 4.94 ± 1.39 percent dose per organ | 8.51 ± 1.54 percent dose per organ | 3.37 ± 0.76 percent dose per organ | 33.15 ± 6.30 percent dose per organ | 2.31 ± 0.24 percent dose per organ | 10.12 ± 0.88 percent dose per organ | 2.99 ± 0.96 percent dose per organ | 4.48 ± 1.48 percent dose per organ | accumulation in hepatobiliary system [1]: Unwanted accumulation in hepatobiliary system is observed; protein binding [3]: 77%; Renal extraction [5]: 53%; hepatobiliary accumulation [6]: appreciable amount; Urine, percent dose per organ ([6]; 30 min post-injection): 63.50 percent dose per organ; Renal plasma clearance [7]: 1.45 ml/min/100 g
2 | Technetium-99m diethylene triamine pentaacetic acid [compound 4] | 43 mL/min | 14.66 ± 3.33 percent dose per organ | 2.71 ± 0.20 percent dose per organ | 2.57 ± 0.30 percent dose per organ | 2.57 ± 0.47 percent dose per organ | 35.48 ± 2.92 percent dose per organ | 5.55 ± 1.22 percent dose per organ | 3.12 ± 0.85 percent dose per organ | 1.08 ± 0.03 percent dose per organ | 1.02 ± 0.30 percent dose per organ | 60.15 percent dose per organ | 19.06 ± 2.37 percent dose per organ | 3.65 ± 2.05 percent dose per organ | 5.13 ± 1.00 percent dose per organ | 4.91 ± 1.18 percent dose per organ | 21.23 ± 1.61 percent dose per organ | 7.08 ± 1.50 percent dose per organ | 6.43 ± 1.42 percent dose per organ | 2.78 ± 1.00 percent dose per organ | 3.30 ± 0.79 percent dose per organ | extraction efficiency [5]: 20%; Urine, percent dose per organ ([6]; 30 min post-injection): 43.32 percent dose per organ; Renal plasma clearance [7]: 0.82 ml/min/100 g
3 | O=C(O)CNC(=O)c1ccccc1[131I] [compound 1, Iodine-131 orthoiodo-hippurate] | 157 mL/min | 3.00 ± 1.29 percent dose per organ | 2.16 ± 0.28 percent dose per organ | 2.57 ± 1.05 percent dose per organ | 2.47 ± 0.26 percent dose per organ | 64.85 ± 2.74 percent dose per organ | 1.41 ± 0.72 percent dose per organ | 1.21 ± 0.47 percent dose per organ | 0.59 ± 0.30 percent dose per organ | 0.90 ± 0.14 percent dose per organ | 80.38 percent dose per organ | 5.61 ± 0.87 percent dose per organ | 2.12 ± 0.41 percent dose per organ | 3.72 ± 0.77 percent dose per organ | 3.29 ± 1.14 percent dose per organ | 48.92 ± 1.54 percent dose per organ | 1.47 ± 0.28 percent dose per organ | 1.92 ± 0.39 percent dose per organ | 0.94 ± 0.20 percent dose per organ | 0.80 ± 0.12 percent dose per organ | protein binding [3]: 32%; Renal extraction [5]: 79%; Urine, percent dose per organ ([6]; 30 min post-injection): 79.80 percent dose per organ; Renal plasma clearance [7]: 2.68 ml/min/100 g
4 | O=C(O)CNC(=O)c1ccccc1I [Orthoiodo-hippurate] |  |  |  |  |  |  |  |  |  |  |  |  |  |  |  |  |  |  |  |  | extraction efficiency [5]: 87%
5 | technetium-99m diethylene triamine pentaacetic acid dimethyl ester [compound 2] | 72 mL/min | 7.27 ± 2.41 percent dose per organ | 3.40 ± 0.25 percent dose per organ | 3.36 ± 0.98 percent dose per organ | 1.65 ± 0.11 percent dose per organ | 46.39 ± 3.67 percent dose per organ | 1.51 ± 0.53 percent dose per organ | 1.67 ± 0.91 percent dose per organ | 1.28 ± 0.52 percent dose per organ | 1.22 ± 0.25 percent dose per organ | 73.23 percent dose per organ | 8.26 ± 0.75 percent dose per organ | 2.19 ± 0.41 percent dose per organ | 3.21 ± 0.29 percent dose per organ | 2.14 ± 0.41 percent dose per organ | 30.94 ± 3.40 percent dose per organ | 3.49 ± 0.36 percent dose per organ | 1.53 ± 0.10 percent dose per organ | 1.47 ± 0.41 percent dose per organ | 0.91 ± 0.03 percent dose per organ | hepatobiliary accumulation [6]: no hepatobiliary accumulation; Urine, percent dose per organ ([6]; 30 min post-injection): 64.20 percent dose per organ; Renal plasma clearance [7]: 1.39 ml/min/100 g
